# Where two headings read alike, the source gives them in different places.
# What was measured:
# [1] = test system: convulsions induced by bicuculline; test: in vivo; conditions: for bicuculline (score: sum of animals protected by dosages of 10 and 100 mgr/kg): oral, 5 mice each, 3 hours before bicuculline 0.6 mgr/kg i.v., tonic convulsions; for ED50: Mus musculus; for DL50/DE50 (therapeutical index): Table III
# Method: The anticonvulsive effect was examined for tonic convulsions induced by bicuculline. The compounds of the invention were administrated orally at dosages of 10 and 100 mgr/kg, each to 5 mice, 3 hours before intravenous injection of bicuculline at the dosage of 0.6 mgr/kg. The number of mice protected against tonic convulsions and the number of dead mice were noted.
# Amongst the substances according to the invention, 2-n-pentylaminoacetamideand its hydrochloride were more particularly studied. […] The hydrochloride was also administered intravenously. […] Table III also gives the therapeutical index (LD50/ED50).
# [2] = in vivo; conditions: mouse, in vivo, po, read-out: DL50 (the source's name)
# [3] = test system: mouse; test: passive prevention (memory) in mouse; type: in vivo; conditions: 50 mgr/kg intraperitoneally
# Text: This product and very likely other compounds of the invention thus improve mnesic retention.
# [4] = test system: platelet agglutination; test: inhibition of platelet agglutination in human plasma (turbidimetric method of Born and Cross, Trombofax); type: cell-based; conditions: human plasma rich in platelets, preincubated 3 minutes before Trombofax
# Method: The measure of the inhibition of platelet agglutination is made according to the turbidimetric method of G. V. R. Born and M. J. Cross (J. Physiol. 168, 178, […]). The plasma rich in platelets is preincubated for 3 minutes before introduction of the inductor agent, Trombofax. The inhibion of the maximum amplitude of agglutination is measured by means of Upchurch agglutometer. In this test, compounds 1, 11, 14 and 18 have shown as being active.
# [5] = test system: decarboxylase glutamate (GAD); test: activity of decarboxylase glutamate (GAD) in homogenizates of rat brain; type: biochemical; conditions: 10^-4 M
# Method: The substances of the invention have the property of inhibiting convulsions induced by bicculline in mouse. […] As a matter of fact, bucuculline is a specific antoganist of GABA. Besides, the effect of the products on the activity of the GABA synthesis enzyme, decarboxylase glutamate (GAD), was studied. The activity of the GAD was determined in homogenizates of rat brain according to the method described by L. Parker (Methods in Enzymology, Ed. S. Fleischer, 1974, Vol. XXXII, part V., p. 779). […] In general, the products of the invention […] the activity of the […] (GABA-T), enzyme of GABA catabolism, which results in an increase of the GABA levels at the level of GABA-ergic neurons.
# [6] = test system: convulsions due to leptazol; test: convulsions due to leptazol in mouse; type: in vivo
# [7] = test system: convulsions induced by strychnine; test: convulsions induced by strychnine; conditions: in vivo
# [8] = test system: mice; test: in vivo; conditions: oral, mice; Table II
# [9] = test system: central serotoninergic system; test: potentiation of the effects of 1-trypthophan in mouse; type: in vivo
# [10] = test system: GAD; test: GAD activity after oral administration in rat; type: in vivo; conditions: 200 mgr/kg per os
# [11] = test system: convulsions due to picrotoxine; test: convulsions due to picrotoxine; conditions: in vivo
# Text: (3) 2-n-pentylaminoacetamide hydrochloride has no effect on the convulsions due to picrotoxine.
# [12] = test system: accumulation of lactate in the brain; test: cerebral anoxia caused by decapitation of rat: lactate in the brain; type: in vivo; conditions: first seconds of anoxia caused by decapitation
# Text: This activity very likely explains itself by an effect on the cerebral energetic metabolism during anoxia. This effect on the cerebral energetic metabolism has been confirmed for 2-n-pentylaminoacetamide hydrochloride in a series of experiments on cerebral anoxia caused by decapitation of rat.
# [13] = test system: GABA-T; test: GABA-T activity after oral administration in rat; type: in vivo; conditions: 200 mgr/kg per os
# [14] = test system: GABA rate of the black substance; test: GABA rate of the black substance after oral administration in rat; type: in vivo; conditions: 200 mgr/kg per os, 4 hours after treatment
compound,measurement,setting,value
"CCCCCCCCNCC(N)=O [Compound 1, 2-n-octylaminoacetamide]",bicuculline (score: sum of animals protected by dosages of 10 and 100 mgr/kg),[1],4
same,LD50,"[2]; mice, Table II",2220 mg/kg
same,behaviour extinction in passive prevention,[3],delayed the behaviour extinction
same,inhibition of platelet agglutination,[4],active
"CCCCCNCC(N)=O [Compound 3, 2-n-pentylaminoacetamide]",effect on the activity of GAD,[5],particularly remarkable
same,ED50,"[1]; iv, 3 h, read-out: DE50",11.2 mg/kg
same,ED50,[1]; po,11.2 mg/kg
same,antagonist action against convulsions due to bicuculline on increase of the bicuculline doses,[1]; increased bicuculline doses,may be overcome by an increase of the bicuculline doses
same,competition with bicuculline,"[1]; mouse, in vivo",competes with bicuculline
same,DL50/DE50 (therapeutical index),[1]; mouse,172
same,bicuculline (score: sum of animals protected by dosages of 10 and 100 mgr/kg),[1],7
same,inhibition of convulsions due to leptazol,[6],only slightly inhibits
same,activity against convulsions induced by strychnine,[7],inactive
same,DL50,[8],1925 mg/kg
same,effect on the effects of 1-trypthophan,[9],potentiates the effects of 1-trypthophan
"CCCCCNCC(N)=O.Cl [Compound 33, 2-n-pentylaminoacetamide hydrochloride]",effect on the activity of GAD,[5],particularly remarkable
same,potentiation of the GAD activity,[10],26%
same,ED50,[1]; iv,2.19 mg/kg
same,ED50,"[1]; iv, 3 h, read-out: DE50",5.74 mg/kg
same,ED50,[1]; po,5.74 mg/kg
same,absorption from the intestinal tractus,"[1]; mouse, in vivo",excellent absorption from the intestinal tractus
same,DL50/DE50 (therapeutical index),[1]; mouse,390
same,bicuculline (score: sum of animals protected by dosages of 10 and 100 mgr/kg),[1],6
same,effect on the convulsions due to picrotoxine,[11],no effect
same,accumulation of lactate in the brain,[12],prevents accumulation of lactate in the brain
same,LD50,"[2]; mice, Table II",2880 mg/kg
same,LD50,[2]; Table III,2240 mg/kg
same,effect on GABA-T,[13],without modifying
same,increase of GABA rate of the black substance,[14],38%
